Legend:
[1] = Cytotoxicity against human HOP92 cells assessed as growth level at 10 uM after 48 hrs by SRB assay; assay type: functional, HOP-92
[2] = tested on: NCI-H23; assay: Cytotoxicity against human NCI-H23 cells assessed as growth level at 10 uM after 48 hrs by SRB assay; assay type: functional
[3] = tested on: NCI-H322M; assay: Cytotoxicity against human NCI-H322M cells assessed as growth level at 10 uM after 48 hrs by SRB assay; assay type: functional
[4] = Cytotoxicity against human HCC2998 cells assessed as growth level at 10 uM after 48 hrs by SRB assay; assay type: functional, HCC 2998
[5] = Cytotoxicity against human HCT15 cells assessed as growth level at 10 uM after 48 hrs by SRB assay; assay type: functional, HCT-15
[6] = Cytotoxicity against human SF295 cells assessed as growth level at 10 uM after 48 hrs by SRB assay; assay type: functional, SF-295
[7] = tested on: U-251; assay: Cytotoxicity against human U251 cells assessed as growth level at 10 uM after 48 hrs by SRB assay; assay type: functional
[8] = tested on: Malme-3M; assay: Cytotoxicity against human MALME-3M cells assessed as growth level at 10 uM after 48 hrs by SRB assay; assay type: functional
[9] = tested on: SK-MEL-5; assay: Cytotoxicity against human SK-MEL-5 cells assessed as growth level at 10 uM after 48 hrs by SRB assay; assay type: functional
[10] = Cytotoxicity against human UACC62 cells assessed as growth level at 10 uM after 48 hrs by SRB assay; assay type: functional, UACC-62
[11] = Cytotoxicity against human OVCAR4 cells assessed as growth level at 10 uM after 48 hrs by SRB assay; assay type: functional, OVCAR-4
[12] = Cytotoxicity against human OVCAR5 cells assessed as growth level at 10 uM after 48 hrs by SRB assay; assay type: functional, OVCAR-5
[13] = Cytotoxicity against human NCI-ADR-RES cells assessed as growth level at 10 uM after 48 hrs by SRB assay; assay type: functional
[14] = Cytotoxicity against human RXF393 cells assessed as growth level at 10 uM after 48 hrs by SRB assay; assay type: functional, RXF 393
[15] = Cytotoxicity against human UO31 cells assessed as growth level at 10 uM after 48 hrs by SRB assay; assay type: functional, UO-31
[16] = Cytotoxicity against human PC3 cells assessed as growth level at 10 uM after 48 hrs by SRB assay; assay type: functional, PC-3
[17] = tested on: CCRF-CEM; assay: Cytotoxicity against human CCRF-CEM cells assessed as growth inhibition at 10 uM after 48 hrs by SRB assay; assay type: functional; details: read-out: GI
[18] = Cytotoxicity against human MOLT4 cells assessed as growth inhibition at 10 uM after 48 hrs by SRB assay; assay type: functional; details: MOLT-4, 48 h, read-out: GI
[19] = Cytotoxicity against human RPMI8226 cells assessed as growth inhibition at 10 uM after 48 hrs by SRB assay; assay type: functional; details: RPMI-8226, 48 h, read-out: GI
[20] = tested on: SR; assay: Cytotoxicity against human SR cells assessed as growth inhibition at 10 uM after 48 hrs by SRB assay; assay type: functional; details: read-out: GI
[21] = tested on: NCI-H23; assay: Cytotoxicity against human NCI-H23 cells assessed as growth inhibition at 10 uM after 48 hrs by SRB assay; assay type: functional; details: NCI-H23, 48 h, read-out: GI
[22] = Cytotoxicity against human HCC2998 cells assessed as growth inhibition at 10 uM after 48 hrs by SRB assay; assay type: functional; details: HCC 2998, 48 h, read-out: GI
[23] = Cytotoxicity against human SW620 cells assessed as growth inhibition at 10 uM after 48 hrs by SRB assay; assay type: functional; details: SW-620, 48 h, read-out: GI
[24] = Cytotoxicity against human SF268 cells assessed as growth inhibition at 10 uM after 48 hrs by SRB assay; assay type: functional; details: SF-268, 48 h, read-out: GI
[25] = Cytotoxicity against human UACC257 cells assessed as growth inhibition at 10 uM after 48 hrs by SRB assay; assay type: functional; details: UACC-257, 48 h, read-out: GI
[26] = Cytotoxicity against human OVCAR3 cells assessed as growth inhibition at 10 uM after 48 hrs by SRB assay; assay type: functional; details: OVCAR-3, 48 h, read-out: GI
[27] = tested on: ACHN; assay: Cytotoxicity against human ACHN cells assessed as growth inhibition at 10 uM after 48 hrs by SRB assay; assay type: functional; details: read-out: GI
[28] = tested on: SN12C; assay: Cytotoxicity against human SN12C cells assessed as growth inhibition at 10 uM after 48 hrs by SRB assay; assay type: functional; details: read-out: GI
[29] = tested on: CCRF-CEM; assay: Cytotoxicity against human CCRF-CEM cells after 48 hrs by SRB assay; assay type: functional
[30] = tested on: K562; assay: Cytotoxicity against human K562 cells after 48 hrs by SRB assay; assay type: functional; details: K562, 48 h
[31] = tested on: SR; assay: Cytotoxicity against human SR cells after 48 hrs by SRB assay; assay type: functional
[32] = tested on: NCI-H226; assay: Cytotoxicity against human NCI-H226 cells after 48 hrs by SRB assay; assay type: functional; details: NCI-H226, 48 h
[33] = tested on: NCI-H23; assay: Cytotoxicity against human NCI-H23 cells after 48 hrs by SRB assay; assay type: functional; details: NCI-H23, 48 h
[34] = tested on: NCI-H322M; assay: Cytotoxicity against human NCI-H322M cells after 48 hrs by SRB assay; assay type: functional
[35] = tested on: NCI-H522; assay: Cytotoxicity against human NCI-H522 cells after 48 hrs by SRB assay; assay type: functional; details: NCI-H522, 48 h
[36] = tested on: HT-29; assay: Cytotoxicity against human HT-29 cells after 48 hrs by SRB assay; assay type: functional; details: HT-29, 48 h
[37] = tested on: KM12; assay: Cytotoxicity against human KM12 cells after 48 hrs by SRB assay; assay type: functional; details: KM12, 48 h
[38] = Cytotoxicity against human LOXIMVI cells after 48 hrs by SRB assay; assay type: functional; details: LOX IMVI
[39] = tested on: SK-MEL-2; assay: Cytotoxicity against human SK-MEL-2 cells after 48 hrs by SRB assay; assay type: functional; details: SK-MEL-2, 48 h
[40] = tested on: ACHN; assay: Cytotoxicity against human ACHN cells after 48 hrs by SRB assay; assay type: functional
[41] = tested on: SN12C; assay: Cytotoxicity against human SN12C cells after 48 hrs by SRB assay; assay type: functional
[42] = tested on: T47D; assay: Cytotoxicity against human T47D cells after 48 hrs by SRB assay; assay type: functional
[43] = tested on: K562; assay: Cytotoxicity against human K562 cells assessed as growth level at 10 uM after 48 hrs by SRB assay; assay type: functional
[44] = read-out: LC50 (the source's name)

Structure (SMILES): C=C1CC[C@@H]2[C@](C)(COC(C)=O)[C@H](OC(C)=O)CC[C@@]2(C)[C@@H]1C/C=C1/C(=O)OC[C@H]1OC(C)=O
- Activity [1]: 71.9%
- Activity [2]: 80.92%
- Activity [3]: 101.35%
- Activity [4]: 67.32%
- Activity [5]: -23.04%
- Activity [6]: 95.02%
- Activity [7]: 54.02%
- Activity [8]: 77.72%
- Activity [9]: 56.18%
- Activity [10]: 29.71%
- Activity [11]: 66.49%
- Activity [12]: 53.7%
- Activity [13]: 24.99%
- Activity [14]: -7.35%
- Activity [15]: 62.83%
- Activity [16]: 88.46%
- inhibition of growth at 10 µM [17]: 11.4%
- inhibition of growth at 10 µM [18]: 6.05%
- inhibition of growth at 10 µM [19]: 85.9%
- inhibition of growth at 10 µM [20]: 94.4%
- inhibition of growth at 10 µM [21]: 19.1%
- inhibition of growth at 10 µM [22]: 32.7%
- inhibition of growth at 10 µM [23]: 21.9%
- inhibition of growth at 10 µM [24]: 12.9%
- inhibition of growth at 10 µM [25]: 33.5%
- inhibition of growth at 10 µM [26]: 21.3%
- inhibition of growth at 10 µM [27]: 80.5%
- inhibition of growth at 10 µM [28]: 66.6%
- GI50 [29]: 1.12 µM
- TGI [29]: 5.32 µM
- CC50 [29, 44]: > 100 µM
- GI50 [30]: 2.63 µM
- LC50 (50% lethal concentration) [30]: > 100 µM
- TGI [30]: 32.1 µM
- GI50 [31]: 2.59 µM
- TGI [31]: 10.1 µM
- CC50 [31, 44]: > 100 µM
- GI50 [32]: 2.14 µM
- LC50 [32]: 19.9 µM
- TGI [32]: 5.42 µM
- GI50 [33]: 6.22 µM
- LC50 [33]: 66.9 µM
- TGI [33]: 23 µM
- GI50 [34]: 16 µM
- LC50 [34]: 55.3 µM
- TGI [34]: 29.7 µM
- GI50 [35]: 1.52 µM
- LC50 [35]: 8.67 µM
- TGI [35]: 3.63 µM
- GI50 [36]: 2.58 µM
- LC50 [36]: > 100 µM
- GI50 [37]: 10.5 µM
- LC50 [37]: 73.4 µM
- TGI [37]: 27.7 µM
- GI50 [38]: 1.42 µM
- LC50 [38]: 5.73 µM
- TGI [38]: 2.85 µM
- GI50 [39]: 10.7 µM
- LC50 (concentration causing 50% net cell kill) [39]: 64.3 µM
- TGI [39]: 26.3 µM
- GI50 [40]: 1.71 µM
- LC50 [40]: 6.06 µM
- TGI [40]: 3.22 µM
- GI50 [41]: 3.07 µM
- LC50 (concentration killing 50% of cells) [41]: 72 µM
- TGI [41]: 13.3 µM
- GI50 [42]: 2.86 µM
- LC50 (concentration killing 50% of cells) [42]: > 100 µM
- TGI [42]: 13.8 µM
- Activity [43]: 11.07%

Structure (SMILES): C=C1CC[C@@H]2[C@](C)(COC(C)=O)[C@H](OC(C)=O)CC[C@@]2(C)[C@@H]1CC(NCc1ccc(F)cc1)C1=CCOC1=O (mixture of isomers)
- Activity [1]: 18.82%
- Activity [2]: 57.85%
- Activity [3]: 72.54%
- Activity [4]: 89.3%
- Activity [5]: 37.04%
- Activity [6]: 96.13%
- Activity [7]: 48.01%
- Activity [8]: 65.1%
- Activity [9]: 11.81%
- Activity [10]: 32.2%
- Activity [11]: 30.87%
- Activity [12]: 99%
- Activity [13]: 28.29%
- Activity [14]: 80.59%
- Activity [15]: 31.26%
- Activity [16]: 20.82%
- inhibition of growth at 10 µM [17]: 90.8%
- inhibition of growth at 10 µM [18]: 0.37%
- inhibition of growth at 10 µM [19]: 98.7%
- inhibition of growth at 10 µM [20]: 92.3%
- inhibition of growth at 10 µM [21]: 42.1%
- inhibition of growth at 10 µM [22]: 10.7%
- inhibition of growth at 10 µM [23]: 68%
- inhibition of growth at 10 µM [24]: 37.4%
- inhibition of growth at 10 µM [25]: 54.2%
- inhibition of growth at 10 µM [26]: 76.3%
- inhibition of growth at 10 µM [27]: 49.1%
- inhibition of growth at 10 µM [28]: 53.8%
- Activity [43]: 18.84%

— ChEMBL document CHEMBL3734705, “Synthesis and in vitro cytotoxicity of novel C-12 substituted-14-deoxy-andrographolide derivatives as potent anti-cancer agents” (2015)
